Reference: ChEMBL document CHEMBL1141566, “Synthesis and antitumor evaluation of bis aza-anthracene-9,10-diones and bis aza-anthrapyrazole-6-ones” (2008)

What was measured:
Type in all cases: functional
HT-29 [1] = assay: Effect on proapoptotic CASP8 gene expression in human HT29 cells after 6 hrs
HT-29 [2] = assay: Effect on proapoptotic CASP9 gene expression in human HT29 cells after 6 hrs
HT-29 [3] = assay: Effect on apoptotic CFLAR gene expression in human HT29 cells after 6 hrs
HT-29 [4] = assay: Effect on proapoptotic NOD1 gene expression in human HT29 cells after 6 hrs
HT-29 [5] = assay: Effect on proapoptotic CARD6 gene expression in human HT29 cells after 6 hrs
HT-29 [6] = assay: Effect on proapoptotic CARD8 gene expression in human HT29 cells after 6 hrs
HT-29 [7] = assay: Effect on proapoptotic CIDEB gene expression in human HT29 cells after 6 hrs
HT-29 [8] = assay: Effect on apoptotic NOL3 gene expression in human HT29 cells after 6 hrs
HT-29 [9] = assay: Effect on apoptotic ABL1 gene expression in human HT29 cells after 6 hrs
HT-29 [10] = assay: Effect on apoptotic GADD45A gene expression in human HT29 cells after 6 hrs
HT-29 [11] = assay: Effect on proapoptotic TP53 gene expression in human HT29 cells after 6 hrs
HT-29 [12] = assay: Effect on proapoptotic BFAR gene expression in human HT29 cells after 6 hrs
HT-29 [13] = assay: Effect on apoptotic BRAF gene expression in human HT29 cells after 6 hrs
HT-29 [14] = assay: Effect on apoptotic NAIP gene expression in human HT29 cells after 6 hrs
HT-29 [15] = assay: Effect on apoptotic BIRC3 gene expression in human HT29 cells after 6 hrs
HT-29 [16] = assay: Effect on apoptotic BIRC4 gene expression in human HT29 cells after 6 hrs
HT-29 [17] = assay: Effect on apoptotic BIRC8 gene expression in human HT29 cells after 6 hrs
HT-29 [18] = assay: Effect on proapoptotic CD70 gene expression in human HT29 cells after 12 hrs
HT-29 [19] = assay: Effect on proapoptotic CD27 gene expression in human HT29 cells after 12 hrs
HT-29 [20] = assay: Effect on proapoptotic TRAF4 gene expression in human HT29 cells after 12 hrs
HT-29 [21] = assay: Effect on proapoptotic TRADD gene expression in human HT29 cells after 12 hrs
HT-29 [22] = assay: Effect on proapoptotic BAK1 gene expression in human HT29 cells after 12 hrs
HT-29 [23] = assay: Effect on proapoptotic BAX gene expression in human HT29 cells after 12 hrs
HT-29 [24] = assay: Effect on apoptotic BCL2L1 gene expression in human HT29 cells after 12 hrs
HT-29 [25] = assay: Effect on proapoptotic BCL2 gene expression in human HT29 cells after 12 hrs
HT-29 [26] = assay: Effect on apoptotic BCL2L10 gene expression in human HT29 cells after 12 hrs
HT-29 [27] = assay: Effect on proapoptotic BCLAF1 gene expression in human HT29 cells after 12 hrs
HT-29 [28] = assay: Effect on apoptotic BNIP2 gene expression in human HT29 cells after 12 hrs
HT-29 [29] = assay: Effect on proapoptotic BNIP3L gene expression in human HT29 cells after 12 hrs
HT-29 [30] = assay: Effect on proapoptotic CASP7 gene expression in human HT29 cells after 12 hrs
HT-29 [31] = assay: Effect on proapoptotic CASP9 gene expression in human HT29 cells after 12 hrs
HT-29 [32] = assay: Effect on proapoptotic CIDEB gene expression in human HT29 cells after 12 hrs
HT-29 [33] = assay: Effect on apoptotic NOL3 gene expression in human HT29 cells after 12 hrs
HT-29 [34] = assay: Effect on apoptotic ABL1 gene expression in human HT29 cells after 12 hrs
HT-29 [35] = assay: Effect on proapoptotic BFAR gene expression in human HT29 cells after 12 hrs
HT-29 [36] = assay: Effect on apoptotic NAIP gene expression in human HT29 cells after 12 hrs
HT-29 [37] = assay: Effect on apoptotic BIRC4 gene expression in human HT29 cells after 12 hrs
HT-29 [38] = assay: Effect on apoptosis in human HT29 PI+/AnnV+ cells after 24 hrs by biparametric flow cytometric analysis; details: HT-29, 24 h, read-out: LC50 (the source's name)

Question: What does the source list for CN(C)CCNc1ccc(NCCCN(C)CCCNc2ccc(NCCN(C)C)c3c2C(=O)c2cnccc2C3=O)c2c1C(=O)c1ccncc1C2=O?
Answer: Fold change (HT-29 [1]): 2.5; Fold change (HT-29 [2]): 3; Fold change (HT-29 [3]): 4; Fold change (HT-29 [4]): 4.2; Fold change (HT-29 [5]): -5; Fold change (HT-29 [6]): 4; Fold change (HT-29 [7]): 9.3; Fold change (HT-29 [8]): 4.7; Fold change (HT-29 [9]): 33; Fold change (HT-29 [10]): 3; Fold change (HT-29 [11]): 3; Fold change (HT-29 [12]): 5.4; Fold change (HT-29 [13]): 2.4; Fold change (HT-29 [14]): 9.6; Fold change (HT-29 [15]): 2.5; Fold change (HT-29 [16]): 9.3; Fold change (HT-29 [17]): -2.3; Fold change (HT-29 [18]): 2.2; Fold change (HT-29 [19]): 2.2; Fold change (HT-29 [20]): 23; Fold change (HT-29 [21]): 2.5; Fold change (HT-29 [22]): 4.1; Fold change (HT-29 [23]): 3; Fold change (HT-29 [24]): -5.9; Fold change (HT-29 [25]): -5.9; Fold change (HT-29 [26]): 7.8; Fold change (HT-29 [27]): 136; Fold change (HT-29 [28]): -3.3; Fold change (HT-29 [29]): 3.6; Fold change (HT-29 [30]): 3; Fold change (HT-29 [31]): 8.5; Fold change (HT-29 [32]): 4.4; Fold change (HT-29 [33]): 15; Fold change (HT-29 [34]): 58; Fold change (HT-29 [35]): -2.5; Fold change (HT-29 [36]): 52; Fold change (HT-29 [37]): 2; CC50 (HT-29 [38]): 18.3 µM
